As usually defined, the IC50 is the midpoint of a concentration-inhibition curve. The Ki is the equilibrium dissociation constant of an inhibitor or competing ligand from its target.

The results in this text go back to ChEMBL document CHEMBL1909046, “DrugMatrix in vitro pharmacology data”.

Data set [1] has as its target Voltage-gated inwardly rectifying potassium channel KCNH2 (Homo sapiens, UniProt Q12809). The conditions noted are these: hek293. Further: in other assays of this panel Not Active means under 50% inhibition at 10 µM.
The target in data set [2] is Sodium-dependent dopamine transporter (Homo sapiens, UniProt Q01959). In words: DRUGMATRIX: Dopamine Transporter radioligand binding (ligand: [125I] RTI-55). It counts as cell membranes, CHO-K1, Membrane. The settings on record: Not Active = under 50% inhibition at 10 µM.
Chain of Sodium-dependent dopamine transporter (Q01959 whole entry): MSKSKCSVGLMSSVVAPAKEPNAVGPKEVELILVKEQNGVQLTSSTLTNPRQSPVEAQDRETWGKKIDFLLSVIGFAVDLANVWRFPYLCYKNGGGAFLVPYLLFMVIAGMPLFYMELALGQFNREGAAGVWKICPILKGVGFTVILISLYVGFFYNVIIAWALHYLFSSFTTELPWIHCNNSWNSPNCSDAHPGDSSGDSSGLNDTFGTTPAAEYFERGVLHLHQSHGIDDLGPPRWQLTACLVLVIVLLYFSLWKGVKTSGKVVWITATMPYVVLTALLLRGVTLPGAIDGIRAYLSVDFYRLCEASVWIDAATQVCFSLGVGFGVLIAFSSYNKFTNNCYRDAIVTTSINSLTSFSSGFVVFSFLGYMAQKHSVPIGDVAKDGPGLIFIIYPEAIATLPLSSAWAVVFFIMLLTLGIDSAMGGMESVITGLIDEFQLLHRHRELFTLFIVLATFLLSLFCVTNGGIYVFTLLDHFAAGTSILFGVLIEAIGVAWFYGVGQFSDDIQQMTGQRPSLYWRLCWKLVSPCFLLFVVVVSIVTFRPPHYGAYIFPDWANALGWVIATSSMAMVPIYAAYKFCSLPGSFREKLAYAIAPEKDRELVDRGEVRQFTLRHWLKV
A further data set deals with T1, Endothelin-1 receptor (Homo sapiens, UniProt P25101).
T1 sequence (P25101 whole entry): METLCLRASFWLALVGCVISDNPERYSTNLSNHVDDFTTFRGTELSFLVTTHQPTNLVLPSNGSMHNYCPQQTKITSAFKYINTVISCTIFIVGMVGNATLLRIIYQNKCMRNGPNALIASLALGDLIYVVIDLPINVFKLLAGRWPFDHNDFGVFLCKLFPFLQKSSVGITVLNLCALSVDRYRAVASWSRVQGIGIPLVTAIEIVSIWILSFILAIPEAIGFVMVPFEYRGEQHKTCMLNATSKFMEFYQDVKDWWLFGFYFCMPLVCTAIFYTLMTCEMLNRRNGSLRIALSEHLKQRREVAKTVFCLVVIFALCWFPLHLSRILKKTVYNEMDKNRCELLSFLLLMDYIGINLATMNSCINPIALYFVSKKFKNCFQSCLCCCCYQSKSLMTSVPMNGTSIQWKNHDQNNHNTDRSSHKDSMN
It counts as cell membranes, CHO-K1, Membrane. The settings on record: cho-k1.

For data set [3], the target named is cGMP-specific 3',5'-cyclic phosphodiesterase (Homo sapiens, UniProt O76074). In words: DRUGMATRIX: Phosphodiesterase PDE5 enzyme inhibition (substrate: [3H]cGMP + cGMP). The conditions noted are these: platelet; Not Active = under 50% inhibition at 10 µM. It counts as tissue-based.
Data set [4] has as its target Protein phosphatase 3 catalytic subunit alpha (Homo sapiens, UniProt Q08209). Details: species or system Escherichia coli.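 Further: inhibition of calcineurin (PP2B) enzyme activity, measured with DiFMUP as the substrate; in other assays of this panel Not Active means under 50% inhibition at 10 µM.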
In data set [5] the target is T2, 5-hydroxytryptamine receptor 2C (Homo sapiens, UniProt P28335).
T2 sequence (P28335 whole entry): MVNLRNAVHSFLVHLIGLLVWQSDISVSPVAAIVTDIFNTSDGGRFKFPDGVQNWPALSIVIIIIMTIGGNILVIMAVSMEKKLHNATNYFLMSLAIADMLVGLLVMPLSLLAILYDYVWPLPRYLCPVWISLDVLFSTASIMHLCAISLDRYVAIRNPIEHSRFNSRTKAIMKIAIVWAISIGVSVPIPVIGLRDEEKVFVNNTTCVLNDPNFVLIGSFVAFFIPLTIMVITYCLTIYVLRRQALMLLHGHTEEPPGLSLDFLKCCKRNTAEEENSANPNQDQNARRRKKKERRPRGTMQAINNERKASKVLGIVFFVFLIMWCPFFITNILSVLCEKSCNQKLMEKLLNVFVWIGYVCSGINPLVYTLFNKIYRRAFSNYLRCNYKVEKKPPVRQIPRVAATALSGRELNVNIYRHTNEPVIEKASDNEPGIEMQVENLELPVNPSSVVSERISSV
In words: DRUGMATRIX: Serotonin (5-Hydroxytryptamine) 5-HT2C radioligand binding (ligand: [3H] Mesulergine). The class given is cell membranes, CHO-K1, Membrane. The settings on record: cho-k1; Not Active = under 50% inhibition at 10 µM.

Data set [6] has as its target T3, Polyunsaturated fatty acid lipoxygenase ALOX15 (Oryctolagus cuniculus, UniProt P12530).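 Further: inhibition of 15-lipoxygenase enzyme activity measured with linoleic acid as the substrate; in other assays of this panel Not Active means under 50% inhibition at 10 µM.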
T3 sequence (P12530 whole entry): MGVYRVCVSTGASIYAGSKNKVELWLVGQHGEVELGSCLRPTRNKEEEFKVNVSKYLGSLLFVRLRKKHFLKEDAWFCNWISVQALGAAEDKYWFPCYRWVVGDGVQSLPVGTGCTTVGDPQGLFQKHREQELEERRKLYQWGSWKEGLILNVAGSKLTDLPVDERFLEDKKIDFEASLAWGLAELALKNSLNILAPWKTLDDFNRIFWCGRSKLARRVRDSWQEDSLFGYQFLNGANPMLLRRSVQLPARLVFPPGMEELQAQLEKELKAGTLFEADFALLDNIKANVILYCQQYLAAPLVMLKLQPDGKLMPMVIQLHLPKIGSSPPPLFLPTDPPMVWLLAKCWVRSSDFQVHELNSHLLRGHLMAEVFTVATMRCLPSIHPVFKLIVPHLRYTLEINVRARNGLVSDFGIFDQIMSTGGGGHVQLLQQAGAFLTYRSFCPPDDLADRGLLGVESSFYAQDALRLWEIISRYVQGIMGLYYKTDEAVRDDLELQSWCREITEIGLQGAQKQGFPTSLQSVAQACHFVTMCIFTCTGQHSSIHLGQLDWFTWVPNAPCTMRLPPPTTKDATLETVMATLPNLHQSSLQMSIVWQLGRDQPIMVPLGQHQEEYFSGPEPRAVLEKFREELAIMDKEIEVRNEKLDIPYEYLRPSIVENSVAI
In words: biochemical. It counts as tissue-based, Reticulocytes.

Chain of Voltage-gated inwardly rectifying potassium channel KCNH2 (Q12809 whole entry): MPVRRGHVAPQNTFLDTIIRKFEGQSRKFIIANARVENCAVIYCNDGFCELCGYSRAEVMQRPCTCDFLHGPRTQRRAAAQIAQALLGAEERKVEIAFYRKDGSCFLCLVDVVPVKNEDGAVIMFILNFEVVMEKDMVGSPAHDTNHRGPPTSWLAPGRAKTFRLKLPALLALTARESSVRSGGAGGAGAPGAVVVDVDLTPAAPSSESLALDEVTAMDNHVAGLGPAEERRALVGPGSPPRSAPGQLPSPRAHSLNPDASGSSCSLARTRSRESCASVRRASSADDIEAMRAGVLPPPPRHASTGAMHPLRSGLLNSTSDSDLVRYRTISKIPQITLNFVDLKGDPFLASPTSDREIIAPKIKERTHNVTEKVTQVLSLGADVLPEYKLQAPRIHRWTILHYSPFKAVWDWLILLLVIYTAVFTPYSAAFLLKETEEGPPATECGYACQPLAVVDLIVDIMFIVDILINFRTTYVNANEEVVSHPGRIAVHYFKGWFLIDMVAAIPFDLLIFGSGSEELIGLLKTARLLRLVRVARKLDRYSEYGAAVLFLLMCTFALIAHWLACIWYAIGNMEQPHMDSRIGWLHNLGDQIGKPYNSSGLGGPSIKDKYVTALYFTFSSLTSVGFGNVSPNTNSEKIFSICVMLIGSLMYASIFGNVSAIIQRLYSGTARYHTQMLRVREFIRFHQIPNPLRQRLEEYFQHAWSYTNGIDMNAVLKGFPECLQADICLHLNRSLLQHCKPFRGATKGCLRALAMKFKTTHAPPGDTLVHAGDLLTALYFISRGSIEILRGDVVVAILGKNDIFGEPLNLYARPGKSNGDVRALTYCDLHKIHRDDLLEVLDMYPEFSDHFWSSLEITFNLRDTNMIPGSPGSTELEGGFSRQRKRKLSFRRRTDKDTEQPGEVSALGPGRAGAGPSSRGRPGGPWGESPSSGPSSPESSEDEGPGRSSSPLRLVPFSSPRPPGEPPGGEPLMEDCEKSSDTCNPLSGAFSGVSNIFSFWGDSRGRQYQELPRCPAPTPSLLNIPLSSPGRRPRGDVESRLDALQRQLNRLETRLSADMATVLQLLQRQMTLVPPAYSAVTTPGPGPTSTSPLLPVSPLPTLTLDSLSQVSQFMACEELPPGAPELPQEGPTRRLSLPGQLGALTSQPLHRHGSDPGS

`CCC(=O)O[C@H]1[C@H](O[C@@H]2[C@@H](C)[C@H](O[C@H]3C[C@@](C)(OC)[C@@H](O)[C@H](C)O3)[C@@H](C)C(=O)O[C@H](CC)[C@@](C)(O)[C@H](O)[C@@H](C)C(=O)[C@H](C)C[C@@]2(C)O)O[C@H](C)C[C@@H]1N(C)C` [ERYTHROMYCIN PROPIONATE]: the 50% inhibitory concentration (IC50) entry (in data set [1]; in data set [2] (cho-k1); against Endothelin-1 receptor; in data set [3]; in data set [4]; in data set [5]) was “Not Active” in each case. The IC50 result in data set [6] (reticulocytes) was “Not Active”. In data set [1], the inhibition constant Ki result was “Not Active”.
Consider `C=C(CC)C(=O)c1ccc(OCC(=O)O)c(Cl)c1Cl` [ETHACRYNIC ACID], for which the IC50 result (in data set [1]; in data set [2] (cho-k1); at Endothelin-1 receptor; in data set [3]; in data set [4]; in data set [5]) was “Not Active” throughout. Further, the IC50 result in data set [6] (reticulocytes) was “Not Active”. Also, the Ki result in data set [1] is “Not Active”.
With `C#C[C@]1(O)CC[C@H]2[C@@H]3CCc4cc(O)ccc4[C@H]3CC[C@@]21C` [ETHINYL ESTRADIOL], the concentration for half-maximal inhibition (IC50) result in data set [1] is “Not Active”; in data set [2] (read-out: IC50), 559 nM; at Endothelin-1 receptor, “Not Active”; in data set [3], “Not Active”; in data set [4], “Not Active”; in data set [5], “Not Active”. The IC50 in data set [6] (read-out: IC50) worked out at 5680 nM. Moreover, the figures for the Ki result in data set [1] and in data set [2] (read-out: Ki) were “Not Active” and 444 nM, respectively.
As to `OCCO` [ETHYLENE GLYCOL], the IC50 entry (in data set [1]; in data set [2] (cho-k1); on Endothelin-1 receptor; in data set [3]; in data set [4]; in data set [5]) was “Not Active” each time. In data set [6] (reticulocytes), the IC50 result is recorded as “Not Active”. For the same compound, in data set [1], the inhibition constant (Ki) result is given as “Not Active”.
For the compound `CC(=O)OCC(CCn1cnc2cnc(N)nc21)COC(C)=O` [FAMCICLOVIR], the 50% inhibitory concentration (IC50) result (in data set [1]; in data set [2] (cho-k1); against Endothelin-1 receptor; in data set [3]; in data set [4]; in data set [5]) was “Not Active” in each case. Besides, the IC50 entry in data set [6] (reticulocytes) was “Not Active”. Besides, the Ki entry in data set [1] was “Not Active”.
For the compound `O=C(O)Cc1ccc(-c2ccccc2)cc1` [FELBINAC], the half-inhibitory concentration (IC50) entry (in data set [1]; in data set [2] (cho-k1); against Endothelin-1 receptor; in data set [3]; in data set [4]; in data set [5]) was “Not Active” in each case. The half-inhibitory concentration (IC50) entry in data set [6] (reticulocytes) was “Not Active”. In data set [1], the inhibition constant Ki entry is recorded as “Not Active”.
For `CCOC(=O)C1=C(C)NC(C)=C(C(=O)OC)C1c1cccc(Cl)c1Cl` (stereo not drawn) [FELODIPINE], the IC50 result (in data set [1]; in data set [2] (cho-k1); at Endothelin-1 receptor; in data set [3]; in data set [4]; in data set [5]) was “Not Active” throughout. In data set [6] (reticulocytes), the half-inhibitory concentration (IC50) entry is “Not Active”. For the same compound, in data set [1], the inhibition constant (Ki) result is given as “Not Active”.
As to `CC(C(=O)O)c1ccc(-c2ccccc2)c(F)c1` (stereo not drawn) [FLURBIPROFEN], the half-inhibitory concentration (IC50) entry (in data set [1]; in data set [2] (cho-k1); at Endothelin-1 receptor; in data set [3]; in data set [4]; in data set [5]) was “Not Active” throughout. Besides, the IC50 entry in data set [6] (reticulocytes) is “Not Active”. In addition, the Ki entry in data set [1] was “Not Active”.
Turning to `Cc1cn[nH]c1` [FOMEPIZOLE], the concentration for half-maximal inhibition (IC50) result (in data set [1]; in data set [2] (cho-k1); at Endothelin-1 receptor; in data set [3]; in data set [4]; in data set [5]) was “Not Active” in each case. The IC50 result in data set [6] (reticulocytes) was “Not Active”. Besides, the inhibitory constant (Ki) entry in data set [1] is on record as “Not Active”.
